We go through one molecule from patent US20080207653A1, “Compositions and Method for Increasing the Efficacy of Epidermal Growth Factor Receptor Tyrosine Kinase Inhibitors” (priority 2005, published 2008).

Data set [1] deals with human lung cancer A549 cells. As to the kind of experiment: Erlotinib accumulation and stereoisomerization in A549 cells and treatment media (LC-MS-MS). It is filed as cell-based. The settings on record: for conversion of parent drug to the 1.78 minute stereoisomer in the presence of cells: media with A549 cells. How it is done:
Analysis of erlotinib metabolism was carried out using erlotinib-resistance cancer cells (human lung cancer A549 cells). Cells were exposed to achievable clinical doses (3 μM) of erlotinib and then lysed at various times following exposure to the drug. Relative erlotinib concentrations were determined in the A549 cell treatment media and compared to levels of erlotinib containing media incubated in the absence of cells as a control. Erlotinib concentrations were assessed using a liquid chromatography dual mass spectrometric method. […] Based on an analysis of chemical structure, only one stereoisomer of the parent drug could account for the 1.78 minute variant form. The stereoisomer migrating at 1.78 minutes represents the L or S configuration of this molecule, wherein the configuration is determined by performing liquid chromatographic separation of the two stereoisomers followed by nuclear magnetic resonance (NMR) analysis of each.
Culture of A549 human lung cancer cells were carried out in Ham's F12 media with L-glutamine containing 10% fetal bovine serum, amphoterecin B, penicillin, and streptomycin. Cells were plated at a density of 300,000 cells per well in a 6 well plate. Cells were allowed to adhere overnight, media was aspirated and 3 mL of treatment media containing 3 μM erlotinib was added to each well. At the same time, 3 mL of the same media was added to wells that contained no cells as a control. One hundred μL of the media was removed from the wells immediately prior to harvesting the cells at various time points. The remaining media was removed and 250 μL of distilled deionized water was added to each well. Cells were also disrupted with a rubber policeman. Each media or cell extract sample was brought to a 1 mL volume with methanol and water (final concentration 50% methanol). Fifty μL of 0.4 M ZnSO4 was added to each sample. Samples were vortexed for 10 seconds and centrifuged at 13,000 RCF for 5 minutes. The supernatants from each were subjected to LC-MS-MS chromatographic analysis using a Waters® Model 2795 system equipped with a Waters® X-Terra® MS column. The mobile phase was composed of 70% methanol containing 0.1% formic acid at a flow rate of 0.15 mL per minute. Dual mass spectroscopy was performed with 394 for the initial mass and 278 for the daughter ion (after collision using argon gas). Dual mass spectroscopic analysis of midazolam was used as an internal standard and was performed at the same time using 326 as the mass for the parent and 291 for the daughter ion. Data was collected and analyzed using Masslynx™ version 3.4 software.

The subject of data set [2] is chemotherapy refractory non-small cell lung cancer. The settings on record: cited from earlier work.
In the next data set the test system is human tumor xenografts. The following applies: animals; cited from earlier work.
Another data set relates to cyclin D1 protein. The settings on record: in vitro and in vivo, aerodigestive tract cancers; cited from earlier work.

`C#Cc1cccc(Nc2ncnc3cc(OCCOC)c(OCCOC)cc23)c1` [erlotinib, N-(3-ethynylphenyl)-6,7-bis(2-methoxyethoxy)quinazolin-4-amine]: the “intracellular concentration of erlotinib by 8 hours” value in data set [1] (A549 cells, 3 μM erlotinib, 8 hours) is recorded as “nearly undetectable levels”. The “time at which intracellular concentrations of erlotinib peaked” value in data set [1] (A549 cells, 3 μM erlotinib, cell lysates) is 4 h. For the same molecule, the “total erlotinib concentrations in the treatment media over the time course” value in data set [1] (A549 treatment media, 3 μM erlotinib) was “did not vary significantly”. The “stereoisomer present in the media in the absence of cells” value in data set [1] (control media without cells, throughout the time course) is reported as “parent drug constituted the most abundant stereoisomer”. In addition, the “conversion of parent drug to the 1.78 minute stereoisomer in the presence of cells” value in data set [1] (4 hours) is given as “some conversion”; in data set [1] (8 hours), “complete conversion”. In data set [2] (doses in the range of 150 mg, patients), the “toxicity at clinical dose” value was “little reported toxicity”. The “dose showing the ability to affect tumor growth” value in data set [2] (patients with chemotherapy refractory non-small cell lung cancer) is around 150 mg. Also, in the data set with human tumor xenografts, the “dose inhibiting proliferation of human tumor xenografts” value was around 10 mg/kg. For the same molecule, the “effect on expression of cyclin D1 protein” value in the data set on cyclin D1 protein is “represses expression of cyclin D1 protein”.
